Results on 2 compounds are retold here after US7205298B2, “Substituted triazine kinase inhibitors” (Janssen Pharmaceutica N.V., priority 2002, dated 2007).

Series [1] has as its target T1, Insulin Receptor Kinase (Homo sapiens, UniProt P06213).
T1 construct: consists of residues 941–1313 of the cytoplasmic domain of the beta-subunit of the human insulin receptor; purchased BIOMOL SE-195
The series can be described thus: Kinase selectivity assay Insulin Receptor Kinase. It counts as biochemical. The protocol: (§1) Assays to test compound inhibition of other kinases were preformed using methods that measure the amount of phosphorylation of a biotinylated peptide substrate. Biotinylated peptide substrates were selected from the literature as appropriate for the enzyme being evaluated. The general procedure used to assay for kinase activity is as follows: a kinase reaction mix was prepared in 50 mM Tris-HCl pH=8, 10 mM MgCl2, 0.1 mM Na3VO4, 1 mM DTT, 10 μM ATP, 0.25–1 μM biotinylated peptide substrate, 0.2–0.8 μCuries per well ^33P-γ-ATP (2000–3000 Ci/mmol). Assay conditions vary slightly for each protein kinase, for example, insulin receptor kinase requires 10 mM MnCl2 for activity and Calmodulin-dependent protein kinase requires calmodulin and 2 mM CaCl2. The reaction mixture was dispensed into the wells of a streptavidin coated Flashplate and 1 μL test compound in 100% DMSO was added to a 100 μL reaction volume resulting in a final concentration of 1% DMSO in the reaction. Enzyme was diluted in 50 mM Tris-HCl pH=8.0, 0.1% BSA and added to each well. The reaction was incubated for one hour at 30° C. in the presence of a test compound. […] The plate was read on a scintillation counter to determine ^33P-γ-ATP incorporated into the immobilized peptide substrate. […] A maximum and minimum signal for the assay was determined on each plate. […]

Series [2] relates to A375 melanoma xenograft. The series can be described thus: In vivo inhibition of tumor growth, tumor growth delay method. Particulars: for MDS to 2.0 g ± SEM (n): A375; for animals survived at day 57: group of six mice; for survival increase: vs control groups. The protocol:
The in vivo effect of a compound on the growth of human tumor cells can be evaluated by implanting human tumor cells originating from a variety of different tumor types (such as A375 human melanoma cells) into the hindflank of athymic mice and administering a test compound to the mice.
Female nude mice were implanted subcutaneously with 1 mm^3 A375 melanoma fragments in the flank. Tumors were monitored twice weekly and then daily as the neoplasms reached the desired size range (about 75 mg). […] Estimated tumor weight was calculated using the formula (where w=width and l=length in mm of an A375 melanoma tumor): […]
All treatments were initiated on Day 1 and the study was terminated on Day 57.
The tumor growth delay (TGD) method was used in this study. In the TGD method, each animal was euthanized when its A375 neoplasm reached a size of 2.0 g. Mean Day of Survival (MDS) values were calculated for all groups. The treatment-effected mean “increase in survival” of various groups were compared to each other and to the mean survival times of mice receiving vehicle. The MDS values calculated for each group, based on the calculated day of death of each mouse, is given by the formula:
Time to exceed endpoint (observed)=number of days it takes for each tumor to grow past the endpoint (cut-off) size. Once the tumor reaches the cut-off size, the animal is euthanized. • D2=day animal is euthanized. • D1=last day of caliper measurement before tumor reaches the endpoint. • Wt2=tumor weight (mg) on D2 • Wt1=tumor weight (mg) on D1 • Endpoint weight=predetermined “cut-off” tumor size for the model being used.
Animals were weighed twice weekly during the study. Mice were examined frequently for clinical signs of any adverse, drug-related side effects. Acceptable toxicity for cancer drugs in mice is defined by the NCI as no mean group weight loss of over 20% during the test, and not more than one toxic death among ten treated animals.

Series [3] addresses T2, MAP Kinase ERK-2 (Rattus norvegicus, UniProt P63086).
T2 construct: polyhistidine (N); purchased BIOMOL SE-137; host or cells: E. coli
The series can be described thus: Kinase selectivity assay MAP Kinase ERK-2. It counts as biochemical. As to the method: as §1

Series [4] deals with T3, Protein Kinase A (Bos taurus, UniProt P00517).
T3 construct: purified from bovine heart; purchased Upstate Biotech 14-114; host or cells: bovine heart (tissue)
The series can be described thus: Kinase selectivity assay Protein Kinase A. The class given is biochemical, bovine. The protocol: as §1

T2 sequence (P63086 whole entry): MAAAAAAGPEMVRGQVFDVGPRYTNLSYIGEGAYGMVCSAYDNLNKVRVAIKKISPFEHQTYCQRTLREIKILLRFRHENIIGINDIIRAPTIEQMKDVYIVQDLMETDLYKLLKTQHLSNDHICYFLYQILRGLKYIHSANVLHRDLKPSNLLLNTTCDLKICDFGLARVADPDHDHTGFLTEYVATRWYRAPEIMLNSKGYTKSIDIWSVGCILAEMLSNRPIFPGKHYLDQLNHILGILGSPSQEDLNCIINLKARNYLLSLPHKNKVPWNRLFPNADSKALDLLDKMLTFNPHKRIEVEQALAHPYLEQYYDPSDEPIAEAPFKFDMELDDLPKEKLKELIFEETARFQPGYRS
T1 sequence (P06213 980-1352): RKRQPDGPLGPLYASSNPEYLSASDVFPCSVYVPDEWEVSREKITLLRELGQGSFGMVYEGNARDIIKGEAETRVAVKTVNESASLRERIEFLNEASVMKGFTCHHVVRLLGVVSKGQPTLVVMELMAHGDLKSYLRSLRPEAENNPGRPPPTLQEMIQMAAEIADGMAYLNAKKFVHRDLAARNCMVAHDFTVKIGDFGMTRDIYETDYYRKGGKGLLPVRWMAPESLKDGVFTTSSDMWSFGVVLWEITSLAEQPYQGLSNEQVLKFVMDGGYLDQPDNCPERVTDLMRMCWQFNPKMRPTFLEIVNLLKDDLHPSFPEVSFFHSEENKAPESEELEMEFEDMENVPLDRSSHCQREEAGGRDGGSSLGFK

A word on the IC50: it is the concentration that inhibits the measured activity by half. Low values mean greater potency in that assay, high ones weaker potency in that assay. For `OCCCNc1cc(-c2ncnc(Nc3cccc(Cl)c3)n2)ccn1` [Compound 2, 3-((4-(4-((3-chlorophenyl)amino)-1,3,5-triazin-2-yl)-2-pyridinyl)amino)-1-propanol], the IC50 in series [1] was above 10 µM; in series [3], above 10 µM; in series [4], above 100 µM. Further, the “surviving longer than the PEG vehicle control and Growth Control groups” value in series [2] (100 mg/kg) is listed as “about 8 days”; in series [2] (125 mg/kg), “about 14 days”; in series [2] (150 mg/kg), “about 12 days”. Besides, the results for the “Max % BW loss (day)” value in series [2] (100 mg/kg i.p. qd×32), in series [2] (125 mg/kg i.p. qd×32) and in series [2] (150 mg/kg i.p. qd×32) were −17.2% (33), −18.8% (29) and −17.6% (33), respectively. The “MDS to 2.0 g ± SEM (n)” value in series [2] (100 mg/kg i.p. qd×32, female nude mice) was 29.6 days; in series [2] (100 mg/kg i.p. qd×32, female nude mice, listed as Cpd 2), 29.6 ± 3.1 (6) days; in series [2] (125 mg/kg i.p. qd×32, female nude mice), 35.2 days; in series [2] (125 mg/kg i.p. qd×32, female nude mice, listed as Cpd 2), 35.2 ± 3.6 (5) days; in series [2] (150 mg/kg i.p. qd×32, female nude mice), 33.6 days; in series [2] (150 mg/kg i.p. qd×32, female nude mice, listed as Cpd 2), 33.6 ± 3.0 (4) days. Further, the figures for the “animals survived at day 57” value in series [2] (100 mg/kg), in series [2] (125 mg/kg) and in series [2] (150 mg/kg) were “None”, “One out of six” and “One out of six”, respectively. The values for the survival increase entry in series [2] (100 mg/kg), in series [2] (125 mg/kg) and in series [2] (150 mg/kg) were “about 37%”, “about 63%” and “about 55%”, respectively. For the same compound, the “NCI definition for acceptable toxicity of a cancer drug in mice” value in series [2] (150 and 125 mg/kg dose groups, no mean group weight loss over 20%, not more than one toxic death among ten) was “satisfied the NCI definition for acceptable toxicity”. In addition, the “efficacy against the A375 melanoma xenograft” value in series [2] (high doses of 150 and 125 mg/kg compared) is on record as “approximately equivalent efficacy”.
Consider `OCCCNc1cncc(-c2ncnc(Nc3cccc(Cl)c3)n2)c1` [Compound 1, 3-((5-(4-((3-chlorophenyl)amino)-1,3,5-triazin-2-yl)-3-pyridinyl)amino)-1-propanol], for which the IC50 was 18.2 µM in series [1], above 100 µM in series [3] and above 100 µM in series [4].
